Measurements taken from patent publication US20190054054A1, “Methods reducing or preventing oxidation of high density lipoprotein (HDL)” (Amarin Pharmaceuticals Ireland Limited, priority 2017, published 2019).

Test system: rat renal glomerular endothelial cells
Experiment: NO and ONOO^− release ex vivo from rat glomerular endothelial cells exposed to oxLDL and high glucose (Example 13)
Format: cell-based
Conditions: oxLDL 11 mg/dL and glucose 300 mg/dL, treatment 1 hr at 10.0 μM
Method: Healthy male Wistar Kyoto (WKY) rats, aged 7-9 weeks and weighing 250±20 g, were obtained from inbred colonies (National Institutes of Health, Bethesda, Md.). Animals were housed in a controlled environment that provided food and water ad libitum prior to the study. […] Animals were sacrificed and tissue samples obtained immediately for experimentation. All procedures were conducted in accordance with standard Institutional Animal Care and Use Committee guidelines and conformed to the Guide for the Care and Use of Laboratory Animals published by the US National Institutes of Health.
EPA and DHA were purchased from Sigma-Aldrich (St. Louis, Mo.) and solubilized in ethanol to 1.0 mM under nitrogen atmosphere. […] The calcium ionophore (Cal), A23187, was purchased from Sigma-Aldrich and prepared in aqueous buffer to 1.0 mM. All test compounds were further diluted in ethanol or aqueous buffer as needed.
Venous blood from healthy normolipidemic volunteers was collected into Na-EDTA (1 mg/mL blood) vacuum tubes after a 12-hour fast. […] The LDL fraction was dialyzed for 96 hours against PBS containing 0.3 mM EDTA and stored at 4° C. until experimental use.
LDL was oxidized according to the methods of Huber et al. 16 Briefly, the purified LDL fraction was dialyzed against Tris/NaCl Buffer (50 mM Tris in 0.15 M NaCl, pH 8.0) to remove EDTA. Additional buffer was added to adjust the protein concentration to 30 mg/mL. LDL oxidation was initiated with 20 μM CuSO4 and monitored spectrophotometrically (234 nm) over a period of 24 hours until complete. The oxLDL was then dialyzed at 4° C. with 4 L Tris buffer, filtered with a 0.22 µm filter, and stored under nitrogen at 4° C.
Immediately after sacrificing the rats, kidneys were removed, cut into […] sections and transferred to a separate organ chamber containing Dulbecco's phosphate buffered saline ([…]) and […] glucose at pH 7.4.
Concurrent measurements of NO and ONOO^− were performed on intact glomerular (cortical zone) endothelial cells using tandem electrochemical nanosensors, as previously described (FIG. 45).
The NO/ONOO^− nanosensor was positioned near the surface of the endothelial cells using a computer-controlled M3301 micromanipulator (x-y-z resolution of 0.2 μm) and microscope (both from World Precision Instruments, Berlin, Germany) fitted with a CD camera. Each analyte was measured from amperograms and standard calibration curves collected under maximum current. […] After establishing a background current, maximal NO and ONOO^− release was induced by injecting Cal into the organ chamber using a nanoinjector (World Precision Instruments, Berlin Germany). Changes in current (proportional to the molar concentrations of NO or ONOO^− released) were monitored continuously immediately following Cal stimulation.
Data are presented as mean+standard deviation (SD) for (N) separate samples or experiments. Differences between groups were analyzed using the unpaired, two-tailed Student's t-test (for comparisons between only two groups) or ANOVA followed by Student-Newman-Keuls multiple comparisons post hoc analysis (for comparisons between three or more groups). Only differences with probability values less than 0.05 were considered significant.

CC/C=C\C/C=C\C/C=C\C/C=C\C/C=C\CCCC(=O)O [EPA, cis-5,8,11,14,17-eicosapentaenoic acid]
NO/ONOO^− Ratio: 1.08
increase in NO release (versus vehicle): 205%
increase of the NO/ONOO^− ratio (versus vehicle): more than 4 fold
reduction of ONOO^− release (versus vehicle): 27%
